Data on three compounds can be found in patent US12473299B2, “Cross-linked nucleoside and nucleotide using same” (Osaka University, priority 2020, dated 2025).

One data set relates to mice (C57BL/6J, male). In words: Toxicity reducing effect: serum AST/ALT and death in mice. It is filed as in vivo. The following applies: 20 mg/kg intraperitoneally. Here is the method: The test oligonucleotides (20 mg/kg) shown in Table 45 were administered intraperitoneally to six-week-old mice (C57BL/6J, male) (5 mice/group). After 96 hours, blood was collected under inhalation anesthesia (isoflurane), and the mice were exsanguinated. Then, the activities of aspartate transaminase (AST) and alanine transaminase (ALT) in serum were measured using an automated analyzer (FUJI DRI-CHEM 4000V manufactured by FUJIFILM).

Data set [1] deals with single-stranded oligo DNA 5′-d(AGCAAAYAACGC)-3′. The data set is described as follows: Base selectivity (Tm, match/mismatch) with single-stranded oligo DNA. Type of data set: binding. Here is the method:
(§1) The double-strand forming ability of the oligonucleotides was examined by subjecting the different types of oligonucleotides and the target strands to an annealing treatment to form double strands, and then measuring their Tm values. More specifically, a mixed liquid of each oligonucleotide (final concentration: 4 μM) and a phosphate buffer (10 mM, pH 7.2, 130 μL) containing sodium chloride (final concentration: 100 mM) was bathed in boiling water and then slowly cooled to room temperature. After that, the mixed liquid was cooled to 5° C. under nitrogen stream before starting the measurement. The temperature was raised to 90° C. at a rate of 0.5° C./min while absorbance at 260 nm was plotted at intervals of 0.5° C. The Tm value was calculated using a median method or differentiation (SEQ ID No. 17), and a mean value of three independent measurements was adopted.
(§2) For the above sequences (1) to (5), the double-strand forming ability (binding affinity) was examined in a similar manner using a single-stranded oligo RNA 5′-r([…])-3′ and a single-stranded oligo DNA 5′-d([…])-3′ as target strands.
(§3) For the single-stranded oligo RNA, Y was one of rA (SEQ ID No. 18), rU (SEQ ID No. 20), rG (SEQ ID No. 21), and rC (SEQ ID No. 22). For the single-stranded oligo DNA, Y was one of dA (SEQ ID No. 19), dT (SEQ ID No. 23), dG (SEQ ID No. 24), and dC (SEQ ID No. 25).
(§4) In the table, ΔTm was calculated by subtracting the Tm value of the match (dA or rA) from the Tm value of the mismatch.

The test system of data set [2] is single-stranded oligo RNA 5′-r(AGCAAAYAACGC)-3′. In words: Base selectivity (Tm, match/mismatch) with single-stranded oligo RNA. Type of data set: binding. Here is the method: as §1, §2, §3, §4
The mark [3] stands for this setting: 5 mice/group, serum after 96 hours, Means ± SD.
Where [4] appears, read: sequences (1) to (5), label = unit at position 6, match.

Entries after “also recorded” stand apart in the source; their conditions may differ. [BANA] = cross-linked (bridged) nucleoside of the invention; l = locked nucleic acid (LNA); d = 2'-deoxy (DNA)

Consider “5′-d(^LG^^LT^^LT^t^g^c^c^a^c^c^^LC^^LT^^LA)-3′ (antisense GTTATGCCACCCTA; sugars from the 5' end l3 d8 l3, all phosphorothioate, methylation of C not given here) [(29), reference compound]”, for which the “Remarks (death of mice)” value in the data set on mice (C57BL/6J, male) (5 mice/group, 96 hours) is “all of the five mice died; also recorded: All 5 died”.
Consider “5′-d(^LG^T^T^a^t^g^c^c^a^c^c^^LC^T^^LA)-3′ (antisense GTTATGCCACCCTA; sugars from the 5' end l[BANA][BANA]ddddddddl[BANA]l, all phosphorothioate, methylation of C not given here) [(28), T: BANA-T3]”, for which, in the data set on mice (C57BL/6J, male) (setting [3]), the ALT was 36.8 ± 9.5 IU/L and the AST stood at 223.2 ± 102.6 IU/L. The “increase in ALT and AST” value with mice (C57BL/6J, male) (after 96 hours, versus saline) is “almost no increase in ALT and AST”.
For `COc1ccc(C(OC[C@H]2OC3CCOC([C@@H]3n3cc(C)c(=O)[nH]c3=O)[C@H]2OP(OCCC#N)N(C(C)C)C(C)C)(c2ccccc2)c2ccc(OC)cc2)cc1` (stereo partly shown) [compound 19], the “ssDNA: Tm, Y = dA” value in data set [1] (setting [4]) was 42 °C. The “ssDNA: Tm, Y = dT” value in data set [1] (sequences (1) to (5), label = unit at position 6, mismatch dT) stood at 38 °C. For the same compound, the “ssDNA: Tm, Y = dC” value in data set [1] (sequences (1) to (5), mismatch dC) stood at 32 °C. Further, the “ssDNA: Tm, Y = dG” value in data set [1] (sequences (1) to (5), mismatch dG) was 31 °C. In addition, in data set [1] (ΔTm = Tm(mismatch) − Tm(match), mismatch dC), the “ssDNA: ΔTm, Y = dC” value was −10 °C. The “ssDNA: ΔTm, Y = dG” value in data set [1] (ΔTm = Tm(mismatch) − Tm(match), mismatch dG) is −11 °C. Also, the “ssDNA: ΔTm, Y = dT” value in data set [1] (ΔTm = Tm(mismatch) − Tm(match), mismatch dT) was −4 °C. Besides, the “base pairing with G” value in data set [2] (introduced into the oligonucleotides, compared with native DNA (dT) (SEQ ID No. 1)) is “suppressed base pairing with G”. The “ssRNA: Tm, Y = rA” value in data set [2] (setting [4]) came out at 48 °C. Besides, in data set [2] (sequences (1) to (5), mismatch rC), the “ssRNA: Tm, Y = rC” value was 34 °C. Also, the “ssRNA: Tm, Y = rG” value in data set [2] (sequences (1) to (5), mismatch rG) worked out at 39 °C. In data set [2] (sequences (1) to (5), mismatch rU), the “ssRNA: Tm, Y = rU” value was 40 °C. For the same compound, the “ssRNA: ΔTm, Y = rC” value in data set [2] (ΔTm = Tm(mismatch) − Tm(match), mismatch rC) was −14 °C. Also, the “ssRNA: ΔTm, Y = rG” value in data set [2] (ΔTm = Tm(mismatch) − Tm(match), mismatch rG) was −9 °C. For the same compound, in data set [2] (ΔTm = Tm(mismatch) − Tm(match), mismatch rU), the “ssRNA: ΔTm, Y = rU” value was −8 °C.
